Measurements: patent US7795261B2, “Substituted 1-piperidin-4-yl-4-pyrrolidin-3-yl-piperazine derivatives and their use as neurokinin antagonists” (Janssen Pharmaceutica NV, priority 2002, dated 2010)

What was measured:
Type in all cases: cell-based
NK2 = biological target: T1, NK2 (Homo sapiens, UniProt P21452); experiment: Signal transduction (ST), intracellular Ca++ (FLIPR), NK2; settings: read-out: pIC50 NK2 (converted)
T1 sequence (P21452 1-398): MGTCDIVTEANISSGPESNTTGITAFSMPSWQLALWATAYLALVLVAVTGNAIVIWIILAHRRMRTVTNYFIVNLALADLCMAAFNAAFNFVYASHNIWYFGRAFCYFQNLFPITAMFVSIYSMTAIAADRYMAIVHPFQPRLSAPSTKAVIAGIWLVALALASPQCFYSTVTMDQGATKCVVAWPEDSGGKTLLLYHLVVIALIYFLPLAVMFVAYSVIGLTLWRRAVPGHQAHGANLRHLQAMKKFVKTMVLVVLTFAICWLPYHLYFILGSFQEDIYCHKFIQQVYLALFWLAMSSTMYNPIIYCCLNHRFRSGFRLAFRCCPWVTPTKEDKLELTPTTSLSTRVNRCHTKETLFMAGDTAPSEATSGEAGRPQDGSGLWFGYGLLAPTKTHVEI
Protocol: [The procedure below names another target; the source lists this target under the same test.] This test evaluates in vitro functional NK1 antagonistic activity. For the measurements of intracellular Ca^++ concentrations the cells were grown on 96-well (black wall/transparent bottom) plates from Costar for 2 days until they reached confluence. The cells were loaded with 2 μM Fluo3 in DMEM containing 0.1% BSA and 2.5 mM probenecid for 1 h at 37° C. They were washed 3× with a Krebs buffer (140 mM NaCl, 1 mM MgCl2×6H2O, 5 mM KCl, 10 mM glucose, 5 mM HEPES; 1.25 mM CaCl2; pH 7.4) containing 2.5 mM probenecid and 0.1% BSA (Ca^++-buffer). The cells were preincubated with a concentration range of antagonists for 20 min at RT and Ca^++-signals after addition of the agonists were measured in a Fluorescence Image Plate Reader (FLIPR from Molecular Devices, Crawley, England). The peak of the Ca^++-transient was considered as the relevant signal and the mean values of corresponding wells were analysed as described below.
The sigmoidal dose response curves were analysed by computerised curve-fitting, using the GraphPad Program. […] For antagonist responses the IC50-value was calculated using non-linear regression.
The last columns indicates—without being limited therefore—for which the compounds might be most suitable. Of course, since for some neurokinin receptors no data was determined, it is obvious that these compounds might be attributed to another suitable use.

NK1 = NK1 (Homo sapiens, UniProt P25103); experiment: Signal transduction (ST), intracellular Ca++ (FLIPR), NK1 antagonistic activity; settings: read-out: pIC50 NK1 (converted)
Chain of NK1 (P25103 whole entry): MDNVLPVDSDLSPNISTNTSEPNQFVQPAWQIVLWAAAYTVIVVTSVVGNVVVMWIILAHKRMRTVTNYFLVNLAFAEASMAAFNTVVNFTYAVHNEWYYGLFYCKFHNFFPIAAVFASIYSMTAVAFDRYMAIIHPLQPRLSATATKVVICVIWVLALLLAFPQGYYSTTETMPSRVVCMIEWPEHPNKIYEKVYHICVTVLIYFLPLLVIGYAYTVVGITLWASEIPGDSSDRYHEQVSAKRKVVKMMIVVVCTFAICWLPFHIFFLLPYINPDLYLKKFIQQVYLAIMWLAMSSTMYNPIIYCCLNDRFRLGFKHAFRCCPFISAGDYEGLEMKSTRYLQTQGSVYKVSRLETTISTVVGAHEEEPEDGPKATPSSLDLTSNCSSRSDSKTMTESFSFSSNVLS
In short: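 Confluent cells loaded with 2 μM Fluo3 (1 h, 37 °C, probenecid), preincubated 20 min at RT with antagonist concentration range, then agonist added. Peak Ca++ transient read by FLIPR in Krebs buffer pH 7.4; IC50 by non-linear regression.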

NK3 = biological target: T2, NK3 (Homo sapiens, UniProt P29371); experiment: Signal transduction (ST), intracellular Ca++ (FLIPR), NK3; settings: read-out: pIC50 NK3 (converted)
T2 sequence (P29371 1-465): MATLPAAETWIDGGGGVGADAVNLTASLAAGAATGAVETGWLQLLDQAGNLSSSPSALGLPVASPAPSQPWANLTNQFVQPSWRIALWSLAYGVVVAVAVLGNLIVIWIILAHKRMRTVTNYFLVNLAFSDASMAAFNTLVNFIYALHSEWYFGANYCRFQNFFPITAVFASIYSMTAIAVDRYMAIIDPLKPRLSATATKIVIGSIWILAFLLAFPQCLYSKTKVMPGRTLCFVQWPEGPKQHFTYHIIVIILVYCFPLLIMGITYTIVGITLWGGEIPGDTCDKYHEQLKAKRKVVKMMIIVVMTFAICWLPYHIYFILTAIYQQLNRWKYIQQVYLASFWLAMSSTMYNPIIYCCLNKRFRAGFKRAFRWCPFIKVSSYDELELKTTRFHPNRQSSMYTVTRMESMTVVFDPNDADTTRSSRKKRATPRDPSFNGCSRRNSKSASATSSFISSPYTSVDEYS

| SMILES | IC50 (NK2) | IC50 (NK1) | IC50 (NK3) |
| --- | --- | --- | --- |
| Cn1cccc1C(=O)N1CCC(N2CCN(C3CCN(C(=O)c4cc(C(F)(F)F)cc(C(F)(F)F)c4)C(Cc4ccc(F)c(F)c4)C3)CC2)C1 (single isomer, unassigned) [Compound 367] | 1260 nM | 10 nM | 1580 nM |
| Cn1cccc(C(=O)N2CCC(N3CCN(C4CCN(C(=O)c5cc(C(F)(F)F)cc(C(F)(F)F)c5)C(Cc5ccc(F)c(F)c5)C4)CC3)C2)c1=O (single isomer, unassigned) [Compound 368] | 3160 nM | 10 nM | 3160 nM |
| Cc1nnsc1C(=O)N1CCC(N2CCN(C3CCN(C(=O)c4cc(C(F)(F)F)cc(C(F)(F)F)c4)C(Cc4ccccc4)C3)CC2)C1 (single isomer, unassigned) [Compound 380] | 7940 nM | 6.31 nM | 1580 nM |
| O=C(C1CCCCC1)N1CCC(N2CCN(C3CCN(C(=O)c4cc(C(F)(F)F)cc(C(F)(F)F)c4)C(Cc4ccccc4)C3)CC2)C1 (single isomer, unassigned) [Compound 403] | 2510 nM | 7.94 nM | 2510 nM |
| O=C(c1cc(C(F)(F)F)cc(C(F)(F)F)c1)N1CC[C@H](N2CCN(C3CCN(c4cnccn4)C3)CC2)C[C@H]1Cc1ccccc1 (stereo partly drawn) [Compound 4] | 6310 nM | 25.1 nM | 158 nM |
| O=C(c1cc(C(F)(F)F)cc(C(F)(F)F)c1)N1CCC(N2CCN(C3CCN(c4ncccn4)C3)CC2)CC1Cc1ccccc1 (stereo not drawn) [Compound 5] | 6310 nM | 31.6 nM | 631 nM |
| Cc1ccccc1C(=O)N1CCC(N2CCN([C@H]3CCN(C(=O)c4cc(C(F)(F)F)cc(C(F)(F)F)c4)[C@H](Cc4ccccc4)C3)CC2)C1 (stereo partly drawn) [Compound 13] | 3980 nM | 25.1 nM | 200 nM |
| COc1ccccc1C(=O)N1CCC(N2CCN([C@H]3CCN(C(=O)c4cc(C(F)(F)F)cc(C(F)(F)F)c4)[C@H](Cc4ccccc4)C3)CC2)C1 (stereo partly drawn) [Compound 14] | 5010 nM | 7.94 nM | 316 nM |
| O=C(c1ccccc1F)N1CCC(N2CCN([C@H]3CCN(C(=O)c4cc(C(F)(F)F)cc(C(F)(F)F)c4)[C@H](Cc4ccccc4)C3)CC2)C1 (stereo partly drawn) [Compound 16] | 5010 nM | 31.6 nM | 2510 nM |
| O=C(c1ccccc1Cl)N1CCC(N2CCN([C@H]3CCN(C(=O)c4cc(C(F)(F)F)cc(C(F)(F)F)c4)[C@H](Cc4ccccc4)C3)CC2)C1 (stereo partly drawn) [Compound 17] | 7940 nM | 15.8 nM | 251 nM |
| Cc1cccc(C(=O)N2CCC(N3CCN([C@H]4CCN(C(=O)c5cc(C(F)(F)F)cc(C(F)(F)F)c5)[C@H](Cc5ccccc5)C4)CC3)C2)c1C (stereo partly drawn) [Compound 19] | 7940 nM | 39.8 nM | 398 nM |
| O=C(c1cc(F)ccc1F)N1CCC(N2CCN([C@H]3CCN(C(=O)c4cc(C(F)(F)F)cc(C(F)(F)F)c4)[C@H](Cc4ccccc4)C3)CC2)C1 (stereo partly drawn) [Compound 21] | 5010 nM | 12.6 nM | 398 nM |
| Cn1ccc(C(=O)N2CCC(N3CCN([C@H]4CCN(C(=O)c5cc(C(F)(F)F)cc(C(F)(F)F)c5)[C@H](Cc5ccccc5)C4)CC3)C2)c1 (stereo partly drawn) [Compound 23] | 3160 nM | 31.6 nM | 501 nM |
| Cn1cccc1C(=O)N1CCC(N2CCN([C@H]3CCN(C(=O)c4cc(C(F)(F)F)cc(C(F)(F)F)c4)[C@H](Cc4ccccc4)C3)CC2)C1 (stereo partly drawn) [Compound 24] | 6310 nM | 25.1 nM | 251 nM |
| O=C(c1cn[nH]c1)N1CCC(N2CCN([C@H]3CCN(C(=O)c4cc(C(F)(F)F)cc(C(F)(F)F)c4)[C@H](Cc4ccccc4)C3)CC2)C1 (stereo partly drawn) [Compound 25] | 5010 nM | 20 nM | 5010 nM |
| Cc1cc(C(=O)N2CCC(N3CCN([C@H]4CCN(C(=O)c5cc(C(F)(F)F)cc(C(F)(F)F)c5)[C@H](Cc5ccccc5)C4)CC3)C2)n(C)n1 (stereo partly drawn) [Compound 26] | 1580 nM | 10 nM | 158 nM |
| Cc1cc(C(=O)N2CCC(N3CCN([C@H]4CCN(C(=O)c5cc(C(F)(F)F)cc(C(F)(F)F)c5)[C@H](Cc5ccccc5)C4)CC3)C2)n(C(C)(C)C)n1 (stereo partly drawn) [Compound 27] | 631 nM | 15.8 nM | 316 nM |
| O=C(c1cnccn1)N1CCC(N2CCN([C@H]3CCN(C(=O)c4cc(C(F)(F)F)cc(C(F)(F)F)c4)[C@H](Cc4ccccc4)C3)CC2)C1 (stereo partly drawn) [Compound 30] | 3980 nM | 31.6 nM | 1000 nM |
| O=C(c1ccoc1)N1CCC(N2CCN([C@H]3CCN(C(=O)c4cc(C(F)(F)F)cc(C(F)(F)F)c4)[C@H](Cc4ccccc4)C3)CC2)C1 (stereo partly drawn) [Compound 34] | 3160 nM | 20 nM | 316 nM |
| O=C(c1ccco1)N1CCC(N2CCN([C@H]3CCN(C(=O)c4cc(C(F)(F)F)cc(C(F)(F)F)c4)[C@H](Cc4ccccc4)C3)CC2)C1 (stereo partly drawn) [Compound 35] | 3980 nM | 25.1 nM | 200 nM |
| O=C(c1ccsc1)N1CCC(N2CCN([C@H]3CCN(C(=O)c4cc(C(F)(F)F)cc(C(F)(F)F)c4)[C@H](Cc4ccccc4)C3)CC2)C1 (stereo partly drawn) [Compound 41] | 1580 nM | 15.8 nM | 200 nM |
| Cc1ccc(C(=O)N2CCC(N3CCN([C@H]4CCN(C(=O)c5cc(C(F)(F)F)cc(C(F)(F)F)c5)[C@H](Cc5ccccc5)C4)CC3)C2)s1 (stereo partly drawn) [Compound 43] | 7940 nM | 25.1 nM | 631 nM |
| O=C(c1cc(Cl)sc1Cl)N1CCC(N2CCN([C@H]3CCN(C(=O)c4cc(C(F)(F)F)cc(C(F)(F)F)c4)[C@H](Cc4ccccc4)C3)CC2)C1 (stereo partly drawn) [Compound 44] | 6310 nM | 50.1 nM | 631 nM |
| Cc1cc(C(=O)N2CCC(N3CCN([C@H]4CCN(C(=O)c5cc(C(F)(F)F)cc(C(F)(F)F)c5)[C@H](Cc5ccccc5)C4)CC3)C2)no1 (stereo partly drawn) [Compound 46] | 3980 nM | 31.6 nM | 1260 nM |
| Cc1onc(-c2c(Cl)cccc2Cl)c1C(=O)N1CCC(N2CCN([C@H]3CCN(C(=O)c4cc(C(F)(F)F)cc(C(F)(F)F)c4)[C@H](Cc4ccccc4)C3)CC2)C1 (stereo partly drawn) [Compound 49] | 3160 nM | 25.1 nM | 251 nM |
| O=C(c1c[nH]c2ccccc12)N1CCC(N2CCN([C@H]3CCN(C(=O)c4cc(C(F)(F)F)cc(C(F)(F)F)c4)[C@H](Cc4ccccc4)C3)CC2)C1 (stereo partly drawn) [Compound 56] | 3160 nM | 39.8 nM | 126 nM |
| O=C(C(=O)N1CCC(N2CCN(C3CCN(C(=O)c4cc(C(F)(F)F)cc(C(F)(F)F)c4)C(Cc4ccccc4)C3)CC2)C1)c1ccco1 (stereo not drawn) [Compound 64] | 2510 nM | 50.1 nM | 158 nM |
| O=C(Cc1ccco1)N1CCC(N2CCN([C@H]3CCN(C(=O)c4cc(C(F)(F)F)cc(C(F)(F)F)c4)[C@H](Cc4ccccc4)C3)CC2)C1 (stereo partly drawn) [Compound 66] | 5010 nM | 25.1 nM | 398 nM |
| O=C(Cc1cccs1)N1CCC(N2CCN([C@H]3CCN(C(=O)c4cc(C(F)(F)F)cc(C(F)(F)F)c4)[C@H](Cc4ccccc4)C3)CC2)C1 (stereo partly drawn) [Compound 67] | 3980 nM | 25.1 nM | 1000 nM |
| CC(C(=O)N1CCC(N2CCN([C@H]3CCN(C(=O)c4cc(C(F)(F)F)cc(C(F)(F)F)c4)[C@H](Cc4ccccc4)C3)CC2)C1)c1ccccc1 (stereo partly drawn) [Compound 69] | 631 nM | 12.6 nM | 501 nM |
